{"source": "the supplement of paper PMC10307832", "assay_in_all_cases": "relative viability (nuclei count vs DMSO), 5 days (fraction); higher = more cells survive", "key": {"NCI-H1734": {"tested_on": "NCI-H1734", "in_short": "(§1)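 Lung cancer cell lines, seeded in 1536-well plates, were treated the following day by pin tool with a single drug or with five library-drug doses (not always all listed) in √10 steps on top of a fixed anchor-drug dose. Cells were fixed and nuclei stained in one step after 5 days, and nuclei were counted. Relative viability is the nuclei count for treated wells divided by that for vehicle wells, reported as medians of duplicate plates.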"}, "CAL-12T": {"tested_on": "CAL-12T", "in_short": "as §1"}, "LC-2-ad": {"tested_on": "LC-2-ad", "in_short": "as §1"}, "H3255": {"tested_on": "H3255", "in_short": "as §1"}, "HCC-366": {"tested_on": "HCC-366", "in_short": "as §1"}, "NCI-H1915": {"tested_on": "NCI-H1915", "in_short": "as §1"}, "NCI-H2347": {"tested_on": "NCI-H2347", "in_short": "as §1"}, "HARA": {"tested_on": "HARA", "in_short": "as §1"}, "NCI-H838": {"tested_on": "NCI-H838", "in_short": "as §1"}, "RERF-LC-KJ": {"tested_on": "RERF-LC-KJ", "in_short": "as §1"}, "HCC-15": {"tested_on": "HCC-15", "in_short": "as §1"}, "COR-L 105": {"tested_on": "COR-L 105", "in_short": "as §1"}, "LU99A": {"tested_on": "LU99A", "in_short": "as §1"}, "NCI-H460": {"tested_on": "NCI-H460", "in_short": "as §1"}, "PC-14": {"tested_on": "PC-14", "in_short": "as §1"}, "NCI-H727": {"tested_on": "NCI-H727", "in_short": "as §1"}, "NCI-H1666": {"tested_on": "NCI-H1666", "in_short": "as §1"}, "NCI-H1944": {"tested_on": "NCI-H1944", "in_short": "as §1"}, "NCI-H1437": {"tested_on": "NCI-H1437", "in_short": "as §1"}}}
{"smiles": "C=C1C(=O)O[C@@H](CCCCCCCC)[C@@H]1C(=O)O", "note": "[C-75] + CC1(C)CCC(c2ccc(Cl)cc2)=C(CN2CCN(c3ccc(C(=O)NS(=O)(=O)c4ccc(N[C@H](CCN5CCOCC5)CSc5ccccc5)c(S(=O)(=O)C(F)(F)F)c4)cc3)CC2)C1 [Navitoclax] (partner 0.5 µM)", "values": [{"measurement": "relative viability", "setting": "NCI-H1734; first compound 0.08 µM", "result": 0.828}, {"measurement": "relative viability", "setting": "NCI-H1734; first compound 0.253 µM", "result": 0.778}, {"measurement": "relative viability", "setting": "NCI-H1734; first compound 0.8 µM", "result": 0.815}, {"measurement": "relative viability", "setting": "NCI-H1734; first compound 2.53 µM", "result": 0.629}, {"measurement": "relative viability", "setting": "NCI-H1734; first compound 8 µM", "result": 0.754}, {"measurement": "relative viability", "setting": "CAL-12T; first compound 0.08 µM", "result": 1.47}, {"measurement": "relative viability", "setting": "CAL-12T; first compound 0.253 µM", "result": 1.44}, {"measurement": "relative viability", "setting": "CAL-12T; first compound 0.8 µM", "result": 1.17}, {"measurement": "relative viability", "setting": "CAL-12T; first compound 8 µM", "result": 1.08}, {"measurement": "relative viability", "setting": "LC-2-ad; first compound 0.08 µM", "result": 0.53}, {"measurement": "relative viability", "setting": "LC-2-ad; first compound 0.253 µM", "result": 0.56}, {"measurement": "relative viability", "setting": "LC-2-ad; first compound 0.8 µM", "result": 0.479}, {"measurement": "relative viability", "setting": "LC-2-ad; first compound 8 µM", "result": 0.474}, {"measurement": "relative viability", "setting": "H3255; first compound 0.08 µM", "result": 0.565}, {"measurement": "relative viability", "setting": "H3255; first compound 0.253 µM", "result": 0.5}, {"measurement": "relative viability", "setting": "H3255; first compound 0.8 µM", "result": 0.513}, {"measurement": "relative viability", "setting": "H3255; first compound 2.53 µM", "result": 0.466}, {"measurement": "relative viability", "setting": "H3255; first compound 8 µM", "result": 0.577}, {"measurement": "relative viability", "setting": "HCC-366; first compound 0.08 µM", "result": 1.03}, {"measurement": "relative viability", "setting": "HCC-366; first compound 0.253 µM", "result": 1.1}, {"measurement": "relative viability", "setting": "HCC-366; first compound 0.8 µM", "result": 0.943}, {"measurement": "relative viability", "setting": "HCC-366; first compound 8 µM", "result": 0.833}, {"measurement": "relative viability", "setting": "NCI-H1915; first compound 0.08 µM", "result": 0.818}, {"measurement": "relative viability", "setting": "NCI-H1915; first compound 0.253 µM", "result": 0.785}, {"measurement": "relative viability", "setting": "NCI-H1915; first compound 0.8 µM", "result": 0.774}, {"measurement": "relative viability", "setting": "NCI-H1915; first compound 2.53 µM", "result": 0.386}, {"measurement": "relative viability", "setting": "NCI-H1915; first compound 8 µM", "result": 0.781}, {"measurement": "relative viability", "setting": "NCI-H2347; first compound 0.08 µM", "result": 0.688}, {"measurement": "relative viability", "setting": "NCI-H2347; first compound 0.253 µM", "result": 1.03}, {"measurement": "relative viability", "setting": "NCI-H2347; first compound 0.8 µM", "result": 0.755}, {"measurement": "relative viability", "setting": "NCI-H2347; first compound 2.53 µM", "result": 0.758}, {"measurement": "relative viability", "setting": "NCI-H2347; first compound 8 µM", "result": 0.714}, {"measurement": "relative viability", "setting": "HARA; first compound 0.08 µM", "result": 1.07}, {"measurement": "relative viability", "setting": "HARA; first compound 0.253 µM", "result": 1.26}, {"measurement": "relative viability", "setting": "HARA; first compound 0.8 µM", "result": 1.12}, {"measurement": "relative viability", "setting": "HARA; first compound 8 µM", "result": 1.14}, {"measurement": "relative viability", "setting": "NCI-H838; first compound 0.08 µM", "result": 1.12}, {"measurement": "relative viability", "setting": "NCI-H838; first compound 0.253 µM", "result": 0.916}, {"measurement": "relative viability", "setting": "NCI-H838; first compound 0.8 µM", "result": 1.14}, {"measurement": "relative viability", "setting": "NCI-H838; first compound 2.53 µM", "result": 1.03}, {"measurement": "relative viability", "setting": "NCI-H838; first compound 8 µM", "result": 0.954}, {"measurement": "relative viability", "setting": "RERF-LC-KJ; first compound 0.08 µM", "result": 0.91}, {"measurement": "relative viability", "setting": "RERF-LC-KJ; first compound 0.253 µM", "result": 1.47}, {"measurement": "relative viability", "setting": "RERF-LC-KJ; first compound 0.8 µM", "result": 0.881}, {"measurement": "relative viability", "setting": "RERF-LC-KJ; first compound 2.53 µM", "result": 0.843}, {"measurement": "relative viability", "setting": "RERF-LC-KJ; first compound 8 µM", "result": 0.802}, {"measurement": "relative viability", "setting": "HCC-15; first compound 0.08 µM", "result": 0.692}, {"measurement": "relative viability", "setting": "HCC-15; first compound 0.253 µM", "result": 0.725}, {"measurement": "relative viability", "setting": "HCC-15; first compound 0.8 µM", "result": 0.686}, {"measurement": "relative viability", "setting": "HCC-15; first compound 2.53 µM", "result": 0.59}, {"measurement": "relative viability", "setting": "HCC-15; first compound 8 µM", "result": 0.733}, {"measurement": "relative viability", "setting": "COR-L 105; first compound 0.08 µM", "result": 0.81}, {"measurement": "relative viability", "setting": "COR-L 105; first compound 0.253 µM", "result": 0.828}, {"measurement": "relative viability", "setting": "COR-L 105; first compound 0.8 µM", "result": 0.573}, {"measurement": "relative viability", "setting": "COR-L 105; first compound 2.53 µM", "result": 0.788}, {"measurement": "relative viability", "setting": "COR-L 105; first compound 8 µM", "result": 0.562}, {"measurement": "relative viability", "setting": "LU99A; first compound 0.08 µM", "result": 0.795}, {"measurement": "relative viability", "setting": "LU99A; first compound 0.253 µM", "result": 0.845}, {"measurement": "relative viability", "setting": "LU99A; first compound 0.8 µM", "result": 0.695}, {"measurement": "relative viability", "setting": "LU99A; first compound 2.53 µM", "result": 0.588}, {"measurement": "relative viability", "setting": "LU99A; first compound 8 µM", "result": 0.594}, {"measurement": "relative viability", "setting": "NCI-H460; first compound 0.08 µM", "result": 1.14}, {"measurement": "relative viability", "setting": "NCI-H460; first compound 0.253 µM", "result": 1.23}, {"measurement": "relative viability", "setting": "NCI-H460; first compound 0.8 µM", "result": 1.04}, {"measurement": "relative viability", "setting": "NCI-H460; first compound 8 µM", "result": 1.08}, {"measurement": "relative viability", "setting": "PC-14; first compound 0.08 µM", "result": 1.01}, {"measurement": "relative viability", "setting": "PC-14; first compound 0.253 µM", "result": 1}, {"measurement": "relative viability", "setting": "PC-14; first compound 0.8 µM", "result": 0.977}, {"measurement": "relative viability", "setting": "PC-14; first compound 2.53 µM", "result": 0.911}, {"measurement": "relative viability", "setting": "PC-14; first compound 8 µM", "result": 0.978}, {"measurement": "relative viability", "setting": "NCI-H727; first compound 0.08 µM", "result": 0.464}, {"measurement": "relative viability", "setting": "NCI-H727; first compound 0.253 µM", "result": 0.62}, {"measurement": "relative viability", "setting": "NCI-H727; first compound 0.8 µM", "result": 0.436}, {"measurement": "relative viability", "setting": "NCI-H727; first compound 2.53 µM", "result": 0.377}, {"measurement": "relative viability", "setting": "NCI-H727; first compound 8 µM", "result": 0.319}, {"measurement": "relative viability", "setting": "NCI-H1666; first compound 0.08 µM", "result": 0.94}, {"measurement": "relative viability", "setting": "NCI-H1666; first compound 0.253 µM", "result": 1.19}, {"measurement": "relative viability", "setting": "NCI-H1666; first compound 0.8 µM", "result": 0.742}, {"measurement": "relative viability", "setting": "NCI-H1666; first compound 2.53 µM", "result": 0.891}, {"measurement": "relative viability", "setting": "NCI-H1666; first compound 8 µM", "result": 0.567}, {"measurement": "relative viability", "setting": "NCI-H1944; first compound 0.08 µM", "result": 1.03}, {"measurement": "relative viability", "setting": "NCI-H1944; first compound 0.253 µM", "result": 0.896}, {"measurement": "relative viability", "setting": "NCI-H1944; first compound 0.8 µM", "result": 1.01}, {"measurement": "relative viability", "setting": "NCI-H1944; first compound 8 µM", "result": 0.998}, {"measurement": "relative viability", "setting": "NCI-H1437; first compound 0.08 µM", "result": 1.06}, {"measurement": "relative viability", "setting": "NCI-H1437; first compound 0.253 µM", "result": 1.13}, {"measurement": "relative viability", "setting": "NCI-H1437; first compound 0.8 µM", "result": 1.09}, {"measurement": "relative viability", "setting": "NCI-H1437; first compound 2.53 µM", "result": 1.09}, {"measurement": "relative viability", "setting": "NCI-H1437; first compound 8 µM", "result": 1.08}]}
